Measurements reported in ChEMBL document CHEMBL1201862, “PubChem BioAssay data set” (2004).
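In this assay, cells in 96-well plates receive the compound at five concentrations for 48 hours. Endpoints are linearly interpolated between the surrounding concentrations. GI50 is the concentration that inhibits growth by half.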 Activity calls are given as the source filed them. Rule as the data show it: active = GI50 up to about 1.1 µM and inactive = higher.

Columns and labels:
Experiment in all cases: NCI anticancer screen, dose series, 48 h
786-0 = tested on: 786-0
A498 = tested on: A498
A549 = tested on: A549
ACHN = tested on: ACHN
BT-549 = tested on: BT-549
CAKI-1 = tested on: CAKI-1
CCRF-CEM = tested on: CCRF-CEM
COLO 205 = tested on: COLO 205
DU-145 = tested on: DU-145
EKVX = tested on: EKVX
HCT-116 = tested on: HCT-116
HCT-15 = tested on: HCT-15
HL-60 = tested on: HL-60
HOP-62 = tested on: HOP-62
HOP-92 = tested on: HOP-92
HT-29 = tested on: HT-29
Hs-578T = tested on: Hs-578T
IGROV-1 = tested on: IGROV-1
K562 = tested on: K562
KM12 = tested on: KM12
M14 = tested on: M14
MCF7 = tested on: MCF7
MDA-MB-231 = tested on: MDA-MB-231
MDA-MB-435 = tested on: MDA-MB-435
MDA-N = tested on: MDA-N
MOLT-4 = tested on: MOLT-4
Malme-3M = tested on: Malme-3M
NCI-H226 = tested on: NCI-H226
NCI-H23 = tested on: NCI-H23
NCI-H460 = tested on: NCI-H460
NCI-H522 = tested on: NCI-H522
NCI/ADR-RES = tested on: NCI/ADR-RES
OVCAR-3 = tested on: OVCAR-3
OVCAR-4 = tested on: OVCAR-4
OVCAR-5 = tested on: OVCAR-5
OVCAR-8 = tested on: OVCAR-8
PC-3 = tested on: PC-3
RPMI-8226 = tested on: RPMI-8226
RXF 393 = tested on: RXF 393
SF-268 = tested on: SF-268
SF-295 = tested on: SF-295
SF-539 = tested on: SF-539
SK-MEL-28 = tested on: SK-MEL-28
SK-MEL-2 = tested on: SK-MEL-2
SK-MEL-5 = tested on: SK-MEL-5
SK-OV-3 = tested on: SK-OV-3
SN12C = tested on: SN12C
SNB-19 = tested on: SNB-19
SNB-75 = tested on: SNB-75
SR = tested on: SR
SW-620 = tested on: SW-620
T47D = tested on: T47D
U-251 = tested on: U-251
UACC-257 = tested on: UACC-257
UACC-62 = tested on: UACC-62
UO-31 = tested on: UO-31
HCC 2998 = tested on: HCC 2998
TK-10 = tested on: TK-10
LOX IMVI = tested on: LOX IMVI

Measured: GI50

CN1CC=C(c2c(N)nc(N)[nH]c2=O)CC1
inactive: 786-0 > 100 µM | A498 > 100 µM | A549 > 100 µM | ACHN > 100 µM | BT-549 > 100 µM | CAKI-1 > 100 µM | CCRF-CEM > 100 µM | COLO 205 > 100 µM | DU-145 > 100 µM | EKVX > 100 µM | HCT-116 > 100 µM | HL-60 > 100 µM | HOP-62 > 100 µM | HOP-92 > 100 µM | HT-29 > 100 µM | Hs-578T > 100 µM | IGROV-1 > 100 µM | K562 > 100 µM | KM12 > 100 µM | M14 > 100 µM | MCF7 > 100 µM | MDA-MB-231 > 100 µM | MDA-MB-435 > 100 µM | MDA-N > 100 µM | MOLT-4 > 100 µM | Malme-3M 80.2 µM | NCI-H226 > 100 µM | NCI-H23 > 100 µM | NCI-H460 > 100 µM | NCI-H522 > 100 µM | NCI/ADR-RES > 100 µM | OVCAR-3 > 100 µM | OVCAR-4 > 100 µM | OVCAR-5 > 100 µM | OVCAR-8 > 100 µM | PC-3 > 100 µM | RPMI-8226 > 100 µM | RXF 393 > 100 µM | SF-268 > 100 µM | SF-295 > 100 µM | SF-539 > 100 µM | SK-MEL-28 > 100 µM | SK-MEL-2 > 100 µM | SK-MEL-5 > 100 µM | SK-OV-3 > 100 µM | SN12C > 100 µM | SNB-19 > 100 µM | SNB-75 65.6 µM | SR > 100 µM | SW-620 > 100 µM | T47D > 100 µM | U-251 > 100 µM | UACC-257 > 100 µM | UACC-62 > 100 µM | UO-31 > 100 µM
> 100 µM: HCT-15

CO/C=C(/C(=O)OC)[C@@H]1C[C@@H]1c1ccc2ccccc2c1
18.8 µM: HCT-15
inactive: 786-0 33.5 µM | A498 39.3 µM | A549 18.7 µM | ACHN 25.9 µM | BT-549 21.8 µM | CAKI-1 21.6 µM | CCRF-CEM 27.6 µM | COLO 205 18.3 µM | DU-145 38.9 µM | EKVX 19.2 µM | HCC 2998 20.4 µM | HCT-116 18.1 µM | HL-60 18.3 µM | HOP-62 45.4 µM | HOP-92 19.8 µM | HT-29 19.1 µM | Hs-578T 31.8 µM | IGROV-1 20.5 µM | K562 23 µM | KM12 21.7 µM | M14 22.8 µM | MCF7 30.3 µM | MDA-MB-231 26.3 µM | MDA-MB-435 14.7 µM | MDA-N 20.4 µM | MOLT-4 16.4 µM | Malme-3M 20.2 µM | NCI-H226 29.2 µM | NCI-H23 28.2 µM | NCI-H460 27.2 µM | NCI-H522 12 µM | NCI/ADR-RES 26.4 µM | OVCAR-3 24.6 µM | OVCAR-4 16.9 µM | OVCAR-5 97.5 µM | OVCAR-8 34 µM | PC-3 27.7 µM | RPMI-8226 20.3 µM | RXF 393 44.1 µM | SF-268 24.9 µM | SF-295 37.2 µM | SF-539 19.5 µM | SK-MEL-28 23.4 µM | SK-MEL-2 15.2 µM | SK-MEL-5 16.4 µM | SK-OV-3 22.2 µM | SN12C 32.7 µM | SNB-19 56.5 µM | SR 13.2 µM | T47D 20.9 µM | TK-10 37.5 µM | U-251 27.4 µM | UACC-257 26 µM | UACC-62 32.5 µM | UO-31 30.3 µM

COC(=O)C1(C)OC(C)=NC1(C(=O)OC)C(=O)OC (centres undefined)
> 100 µM: HCT-15
inactive: 786-0 > 100 µM | A498 > 100 µM | A549 > 100 µM | ACHN > 100 µM | BT-549 > 31.6 µM | CAKI-1 > 100 µM | COLO 205 > 100 µM | DU-145 > 100 µM | EKVX > 100 µM | HCC 2998 > 100 µM | HCT-116 > 100 µM | HL-60 2.18 µM | HOP-62 > 100 µM | HOP-92 1.45 µM | HT-29 > 100 µM | Hs-578T > 100 µM | IGROV-1 > 100 µM | K562 > 100 µM | KM12 > 100 µM | LOX IMVI > 100 µM | M14 > 100 µM | MCF7 > 100 µM | MDA-MB-231 > 100 µM | MDA-MB-435 > 100 µM | MDA-N > 100 µM | MOLT-4 > 100 µM | Malme-3M > 100 µM | NCI-H226 > 100 µM | NCI-H23 > 100 µM | NCI-H460 > 100 µM | NCI/ADR-RES > 100 µM | OVCAR-3 > 100 µM | OVCAR-4 > 100 µM | OVCAR-5 > 100 µM | OVCAR-8 > 100 µM | PC-3 > 100 µM | RPMI-8226 > 100 µM | RXF 393 > 100 µM | SF-268 > 100 µM | SF-295 > 100 µM | SF-539 > 100 µM | SK-MEL-28 > 100 µM | SK-MEL-2 > 100 µM | SK-MEL-5 > 100 µM | SK-OV-3 > 100 µM | SN12C > 100 µM | SNB-19 > 100 µM | SNB-75 > 100 µM | SR > 100 µM | SW-620 > 100 µM | T47D > 100 µM | TK-10 > 100 µM | U-251 > 100 µM | UACC-257 > 100 µM | UACC-62 > 100 µM | UO-31 > 100 µM
